Measurements published in the NIST ThermoML archive (doi:10.1016/j.jct.2006.05.008).

Assay: molar heat capacity at constant pressure
Conditions: 101.33 kPa, Small (less than 1 g) adiabatic calorimetry

CCCCn1cc[n+](C)c1.[Br-] [1-butyl-3-methylimidazolium bromide]
Conditions	molar heat capacity at constant pressure [J/K/mol]
210 K, Crystal	179.9
210.34 K, Crystal	180.27
211.54 K, Glass	201.34
212.44 K, Crystal	181.75
213.66 K, Glass	205.71
214.52 K, Crystal	183.24
215.75 K, Glass	211.67
216.61 K, Crystal	184.62
217.78 K, Glass	223.22
218.7 K, Crystal	186.06
219.71 K, Glass	249.71
220 K, Crystal	186.6
220.79 K, Crystal	187.32
222.88 K, Crystal	188.66
224.97 K, Crystal	190.05
225.62 K, Liquid	289.04
227.06 K, Crystal	191.53
227.7 K, Liquid	289.5
229.15 K, Crystal	192.85
229.79 K, Liquid	290.01
230 K, Crystal	193.1
231.24 K, Crystal	194.13
231.89 K, Liquid	290.69
233.34 K, Crystal	195.6
233.98 K, Liquid	291.24
235.43 K, Crystal	196.86
236.07 K, Liquid	291.65
237.53 K, Crystal	198
238.17 K, Liquid	292.05
239.63 K, Crystal	199.44
240 K, Crystal	199.5
240.26 K, Liquid	292.64
241.72 K, Crystal	200.93
242.35 K, Liquid	293.21
243.82 K, Crystal	202.36
244.44 K, Liquid	293.89
245.93 K, Crystal	203.67
246.54 K, Liquid	294.81
248.03 K, Crystal	205.09
248.64 K, Liquid	295.35
250 K, Crystal	206.2
250.12 K, Crystal	206.58
250.73 K, Liquid	296.1
252.22 K, Crystal	208.01
252.83 K, Liquid	296.76
254.32 K, Crystal	209.53
256.43 K, Crystal	211.04
258.53 K, Crystal	212.45
260 K, Crystal	213.2
260.63 K, Crystal	213.97
262.74 K, Crystal	215.49
264.84 K, Crystal	217.16
266.93 K, Crystal	218.74
269.03 K, Crystal	220.2
270 K, Crystal	220.8
271.12 K, Crystal	222.15
273.22 K, Crystal	223.99
275.33 K, Crystal	225.35
277.43 K, Crystal	227.05
279.55 K, Crystal	228.43
280 K, Crystal	228.4
281.65 K, Crystal	230.01
283.76 K, Crystal	231.57
285.86 K, Crystal	232.75
287.97 K, Crystal	234.48
290 K, Crystal	235.8
290.08 K, Crystal	236.13
292.19 K, Crystal	237.64
294.31 K, Crystal	239.37
296.42 K, Crystal	241.14
298.15 K, Crystal	241.8
298.54 K, Crystal	243.38
300 K, Crystal	243.1
300.66 K, Crystal	245.13
302.78 K, Crystal	247.98
304.91 K, Crystal	249.78
308.84 K, Crystal	254.23
310 K, Crystal	250.4
312.32 K, Crystal	258.72
314.44 K, Crystal	261.85
320 K, Crystal	257.8
330 K, Crystal	265.1
340 K, Crystal	272.5
350 K, Crystal	279.8
351.35 K, Crystal	280.8
351.35 K, Liquid	332.6
355.98 K, Liquid	334.82
359.86 K, Liquid	336.11
360 K, Liquid	336.3
362.1 K, Liquid	338.41
364.36 K, Liquid	339.33
366.64 K, Liquid	339.84
370 K, Liquid	340.9
